Data published in patent publication US20170112941A1, “VE-CADHERIN BINDING BIOCONJUGATE” (Symic IP, LLC, priority 2015, published 2017).
Ends that are not written are not given here. * marks the point of attachment. NHNH2 = NN*

Columns and labels:
[1] = molecular target: T1, Recombinant VE cadherin/Fc chimera (Homo sapiens, UniProt P33151); experiment: VE-Cadherin Binding Assay (plate ELISA with biotinylated molecule, streptavidin-HRP)
T1 construct: purchased R&D systems 938-VC
Description: Recombinant VE cadherin/Fc chimera (R&D systems, Prod#938-VC) was prepared in 1× Phosphate Buffered Saline (PBS, Gibco, pH 7.4) at 5 μg/mL. 50 μL of this solution was incubated in each well of Costar high bind plate (Prod #9018) overnight at 4° C. The plate was washed three times with PBS. VE-cadherin coated wells were blocked using 0.5% non-fat dry milk and 50 μg/mL heparin sodium in 1×PBS. Blocked plates were then treated with a concentration gradient of eHep-Bbeta (biotinylated) molecule (eHep-Bbeta, 1:8:50). The eHep-Bbeta was dissolved in Tris-NaCl—CaCl2 at 1 mg/mL, serial dilution (1:3) 50 μL 2 hour RT. At the end of the incubation plate was washed three times with PBS.
Ultra-Streptavidin HRP (ThermoFisher Scientific, Prod# N504) was diluted 1:500 using 1% BSA, 1×PBS and 0.05% tween was used to detect the biotinylated molecule bound to rh VE-cadherin coated plates. 100 μL of streptavidin solution was incubated in each well for 20 minutes at RT. The plate was washed three times with 1×PBS. 100 μL of TMB substrate solution (Abcam, slowest kinetic rate) was added to each well and developed for 20 minutes in the dark. 25 μL of stop solution (0.64 M H2SO4 in water) was added to stop the reaction and absorbance was read using Molecular Device i3 at 450 nm.
This assay may be used to determine the binding affinity of the bioconjugates as well as the peptides alone.

HUVECs = experiment: HUVEC culture, thrombin challenge, pMLC/phalloidin fluorescence imaging; format: cell-based, human; conditions: thrombin 1 U/mL, eHep-Bbeta 100 μg/mL, 10 minutes at 37° C., FIG. 3
Description: HUVECs were grown to confluence in 24-well tissue culture treated plates (10000 cells per cm^2) for 3 days. The cells were cultured in vascular basal medium (ATCC, prod# PCS-100-030) supplemented with 0.2% bovine brain extract (BBE), 10 mM L-glutamine, 5 U/mL heparin sodium, 1 μg/mL hydrocortisone hemisuccinate, 50 μg/mL ascorbic acid, and 20% fetal bovine serum. The wells were washed three times with 1× phosphate buffered saline (PBS), and then were treated with medium alone, medium supplemented with thrombin at 1 U/mL, medium supplemented with thrombin at 1 U/mL and eHep-Bbeta at 100 μg/mL, medium supplemented with thrombin at 1 U/mL and heparin at 100 μg/mL for 10 minutes at 37° C. The wells were then washed three times with 1×PBS. Each wash was for 5 minutes. The cells were then fixed using 4% formalin in 1×PBS for 15 minutes at room temperature, washed four times with 1×PBS (each wash was for 10 minutes). Blocking buffer containing 5% normal goat serum, and 0.3% Triton-X 100 in 1×PBS was prepared and 500 μL was added to each well. Blocking was done for 1 hour at room temperature. Antibody dilution buffer containing 1% BSA, and 0.3% Triton-X 100 in 1×PBS was prepared. 200 μL of Rabbit anti pMLC diluted 1:50 using antibody dilution buffer was added to each well and incubated overnight at 4° C. […] The wells were then imaged using an EVOS fluorescence microscope.

[2] = tested on: acute renal ischemic model; experiment: Renal Ischemia Reperfusion (acute renal ischemic model); format: in vivo; conditions: rat
Description: Kidney damage was assessed by measuring serum creatinine levels 24 hours post procedure, and by creatinine clearance measured at 24 hours and 7 days post procedure. In this study, the ischemia time was reduced here to produce a more moderate injury, and the bioconjugate was delivered to the femoral vein, rather than directly to the renal artery, in order to reduce procedure time. See, Verma, et al. “Renal Endothelial Injury and Microvascular Dysfunction in Acute Kidney Injury.” Seminars in nephrology. Vol. 35. No. 1. WB Saunders, 2015 and Urbschat, et al. “Combined peri-ischemic administration of BP 15-42 in treating ischemia reperfusion injury of the mouse kidney.” Microvascular research 101 (2015): 48-54. All test articles were formulated in 1×PBS at 5 mg/mL and 500 μL were delivered for an approximate dose of 10 mg/kg. 1.4. […] Animals were closed and monitored during recovery for 24 hours. • 1.5.8. […] If creatinine clearance was positive in the positive control or test article at 7 days, the animal was survived until day 28, at which point creatinine clearance was again be measured. […] Serum creatinine was measured in each animal at baseline (prior to procedure) and 24 hours post-procedure. • 1.7. Creatinine clearance was measured at 1 and 7 days post procedure. • 1.8. […] Serum creatinine and creatinine clearance levels measured at 24 hours was compared between groups using an unpaired t-test. […]

T1 sequence (P33151 with tags, fused parts or gaps limits assumed): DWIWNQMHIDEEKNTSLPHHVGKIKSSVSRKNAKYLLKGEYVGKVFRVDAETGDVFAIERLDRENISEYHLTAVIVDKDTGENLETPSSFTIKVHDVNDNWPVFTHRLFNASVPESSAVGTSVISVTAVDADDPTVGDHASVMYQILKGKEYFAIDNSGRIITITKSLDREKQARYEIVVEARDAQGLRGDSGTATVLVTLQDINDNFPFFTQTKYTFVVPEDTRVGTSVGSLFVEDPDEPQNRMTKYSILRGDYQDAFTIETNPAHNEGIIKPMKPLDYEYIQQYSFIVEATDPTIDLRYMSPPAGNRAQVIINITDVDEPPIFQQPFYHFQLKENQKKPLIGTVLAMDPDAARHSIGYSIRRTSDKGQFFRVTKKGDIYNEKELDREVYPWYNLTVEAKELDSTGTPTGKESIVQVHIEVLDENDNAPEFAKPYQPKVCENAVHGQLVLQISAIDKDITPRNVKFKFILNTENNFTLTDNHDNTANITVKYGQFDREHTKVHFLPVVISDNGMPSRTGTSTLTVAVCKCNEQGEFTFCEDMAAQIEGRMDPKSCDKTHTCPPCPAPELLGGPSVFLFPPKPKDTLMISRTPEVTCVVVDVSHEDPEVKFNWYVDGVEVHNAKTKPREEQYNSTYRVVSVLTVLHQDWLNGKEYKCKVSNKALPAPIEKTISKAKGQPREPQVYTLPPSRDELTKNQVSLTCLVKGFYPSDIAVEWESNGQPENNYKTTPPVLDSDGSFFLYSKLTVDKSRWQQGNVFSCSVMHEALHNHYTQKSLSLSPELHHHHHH

effect of Tris-NaCl-CaCl2 buffer on molecule binding to VE-cadherin ([1]; Tris-NaCl-CaCl2 buffer): enhances molecule binding significantly
Substance: eHep-Bbeta: Heparin (MWavg 16 kDa) coupled by EDC to Bbeta peptide GHRPLDKKREEAPSLRPAPPPISGGGYR(GSG)-hydrazide; about 3.7 peptides/heparin (GHRPLDKKREEAPSLRPAPPPISGGGYRGSG-NHNH2; also: coupled by EDC to heparin (MWavg 16 kDa), about 3.7 peptides/heparin, attachment site not given here)
binding to VE-cadherin ([1]; biotinylated eHep-Bbeta (1:8:50), 1 mg/mL in Tris-NaCl-CaCl2, serial dilution 1:3, 2 hour RT, absorbance 450 nm, FIG. 2): binds to VE-cadherin in a dose dependent manner | endothelial cell barrier function (HUVECs): preserves endothelial cell barrier function | protection from renal damage upon reperfusion, compared with active control (peptide alone) ([2]; 30 minutes ischemia, approximate dose 10 mg/kg into femoral vein immediately after clamp removal, FIG. 4): protects from renal damage upon reperfusion better than active control (peptide alone) | kidney damage (serum creatinine 24 hours, creatinine clearance 24 hours and 7 days post procedure) ([2]; treatment immediately following renal reperfusion, approximate dose 10 mg/kg, femoral vein): inhibits kidney damage
